Laboratory results taken from patent US9790221B2, “Heteroaryl compounds as IRAK inhibitors and uses thereof” (Merck Patent GmbH, priority 2014, dated 2017).

Assays:
[1] = target: IRAK1 (His-TEV-IRAK1 (194-712)) (Homo sapiens (Human), UniProt P51617); test: IRAK1 enzymatic assay; type: biochemical
Method: IRAK1 is a human purified recombinant enzyme (His-TEV-IRAK1 (194-712)). In this assay, IRAK-1 hydrolyses ATP and autophosphorylates. Measurement of IRAK-1 inhibition was performed in streptavidin coated 384well FlashPlate (PerkinElmer #SMP410A).
His-TEV-IRAK-1 (15 ng/well), ATP (1 μM, [33P]ATP 0.25 μCi/well) and compounds in DMSO (range of concentrations from 20 µM to 1 nM) or controls (2% DMSO) were incubated for 3 hours at 30° C. in assay buffer: Hepes pH7.0 50 mM, Fatty acid-free BSA 0.1%, Dithiothreitol DTT 2 mM, MgCl2 10 mM, EGTA 0.5 mM, Triton-X-100 0.01%. Kinase reaction was stopped by addition of EDTA. Supernatant was discarded, plates were washed three times with 150 mM NaCl and radioactivity was then measured in a Microbeta Trilux reader.

IRAK4 = IRAK4 (Homo sapiens (Human), UniProt Q9NWZ3); test: IRAK4 enzymatic assay; type: biochemical
Chain of IRAK4 (Q9NWZ3 whole entry): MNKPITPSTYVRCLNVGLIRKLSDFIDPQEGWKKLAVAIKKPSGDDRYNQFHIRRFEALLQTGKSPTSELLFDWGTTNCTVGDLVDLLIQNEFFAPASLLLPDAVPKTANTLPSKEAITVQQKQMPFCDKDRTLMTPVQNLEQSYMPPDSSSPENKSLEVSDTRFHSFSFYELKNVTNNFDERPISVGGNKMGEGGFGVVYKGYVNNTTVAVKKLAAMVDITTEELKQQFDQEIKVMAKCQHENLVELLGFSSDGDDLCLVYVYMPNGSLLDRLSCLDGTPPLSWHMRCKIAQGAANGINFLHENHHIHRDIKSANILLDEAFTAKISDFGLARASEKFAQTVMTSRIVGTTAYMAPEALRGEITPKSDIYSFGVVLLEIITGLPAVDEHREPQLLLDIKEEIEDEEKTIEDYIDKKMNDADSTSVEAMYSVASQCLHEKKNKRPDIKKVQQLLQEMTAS
Method: IRAK4 is a human purified recombinant enzyme ([…]. IRAK4 hydrolyses ATP, autophosphorylates and phosphorylates a Serine/Threonine generic peptidic substrate (STK: 61ST1BLC from CisBio International based in Bagnols/Cèze FR).
Measurement of IRAK-4 inhibition was performed in streptavidin coated 384well FlashPlate (PerkinElmer #SMP410A). His-TEV-IRAK4 (20 ng/well), ATP (2 μM, [^33P]ATP 0.25 µCi/well), STK1-biotin peptide (300 nM) and compounds in DMSO (range of concentrations from 20 µM to 1 nM) or controls (2% DMSO) were incubated for 3 hours at 30° C. in assay buffer: Hepes pH7.0 50 mM, Fatty acid-free BSA 0.1%, Dithiothreitol DTT 2 mM, MgCl2 10 mM, EGTA 0.5 mM, Tween-20 0.01%, MnCl2 5 mM.
Kinase reaction was stopped by addition of EDTA. Supernatant was discarded, plates were washed three times with 150 mM NaCl and radioactivity was then measured in a Microbeta Trilux reader.

Chain of IRAK1 (His-TEV-IRAK1 (194-712)) (P51617 194-712): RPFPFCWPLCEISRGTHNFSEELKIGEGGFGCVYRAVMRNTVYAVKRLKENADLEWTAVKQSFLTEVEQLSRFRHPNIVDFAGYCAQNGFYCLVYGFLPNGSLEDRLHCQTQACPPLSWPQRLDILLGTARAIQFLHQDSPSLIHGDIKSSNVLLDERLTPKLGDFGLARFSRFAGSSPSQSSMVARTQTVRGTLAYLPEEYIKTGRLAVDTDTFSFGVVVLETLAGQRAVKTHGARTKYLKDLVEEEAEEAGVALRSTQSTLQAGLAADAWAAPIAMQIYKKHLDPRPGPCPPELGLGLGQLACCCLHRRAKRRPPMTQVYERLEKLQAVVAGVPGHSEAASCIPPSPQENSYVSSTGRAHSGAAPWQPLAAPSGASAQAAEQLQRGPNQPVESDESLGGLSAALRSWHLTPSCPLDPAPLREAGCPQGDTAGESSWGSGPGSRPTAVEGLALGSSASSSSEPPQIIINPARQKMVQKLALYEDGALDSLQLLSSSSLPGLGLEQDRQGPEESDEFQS

SMILES | IC50 [1] | IC50 (IRAK4)
Cn1cc(-c2cccc(-c3ncc(-c4cnn(C)c4)c(NCC4[C@H]5CN(S(C)(=O)=O)C[C@@H]45)n3)c2)cn1 (stereo partly shown) [Example 173] | > 5000 nM | 100 to 1000 nM
Cn1cc(-c2cccc(-c3ncc(-c4cnn(C)c4)c(N4CCC(O)C4)n3)c2)cn1 (stereo not shown) [Example 218] | 1000 to 5000 nM | 100 to 1000 nM
Cn1cc(-c2cccc(-c3ncc(-c4cnn(C)c4)c(NCC4CN(S(C)(=O)=O)CCO4)n3)c2)cn1 (stereo not shown) [Example 172] | 100 to 1000 nM | < 100 nM
Cc1nnc(-c2cnc(-c3cccc(-c4cnn(C)c4)c3)nc2NCC2CN(S(C)(=O)=O)C2)s1 [Example 192] | 1000 to 5000 nM | < 100 nM
COC(=O)[C@@H]1CCC[C@H](Nc2nc(-c3cccc(-c4cnn(C)c4)c3)ncc2-c2cnn(C)c2)C1 [Example 232] | 100 to 1000 nM | < 100 nM
Cn1cc(-c2cccc(-c3ncc(-c4cnn(C)c4)c(NCC4(F)CCNCC4)n3)c2)cn1 [Example 231] | > 5000 nM | 1000 to 5000 nM
Cn1cc(-c2cccc(-c3ncc(-c4cnn(C)c4)c(NCC4(N)CCCCC4)n3)c2)cn1 [Example 252] | 100 to 1000 nM | < 100 nM
Cn1cc(-c2cccc(-c3ncc(-c4ccn(C)n4)c(NC4CC(F)(F)C4)n3)c2)cn1 [Example 90] | > 5000 nM | > 5000 nM
Cn1cc(-c2cccc(-c3ncc(-c4cnn(C)c4)c(NCCO)n3)c2)cn1 [Example 96] | 1000 to 5000 nM | < 100 nM
Cn1cc(-c2cccc(-c3ccc(-c4cnn(C5CCNCC5)c4)cn3)n2)cn1 [Example 2, 6′-(1-Methyl-1H-pyrazol-4-yl)-5-(1-piperidin-4-yl-1H-pyrazol-4-yl)-[2,2′]bipyridinyl] | 1000 to 5000 nM | 100 to 1000 nM
Cn1cc(-c2cccc(-c3ncc(-c4ccn(C)n4)c(N[C@H]4CCC[C@@H]4O)n3)c2)cn1 (racemic) [Example 95] | > 5000 nM | < 100 nM
Cn1cc(-c2cccc(-c3ncc(-c4ccn(C)n4)c(NCCCC(C)(C)O)n3)c2)cn1 [Example 140] | 1000 to 5000 nM | 100 to 1000 nM
Cn1cc(-c2cccc(-c3ncc(-c4ccn(C)n4)c(NC[C@H]4CCNC4)n3)c2)cn1 [Example 104] | 1000 to 5000 nM | 100 to 1000 nM
Cn1cc(-c2cccc(-c3ncc(-c4ccn(C)n4)c(NCCCN4CCOCC4)n3)c2)cn1 [Example 75] | > 5000 nM | > 5000 nM
Cn1cc(-c2cccc(-c3ncc(-c4cnn(C)c4)c(N4CC[C@@H](NS(C)(=O)=O)C4)n3)c2)cn1 [Example 247] | 1000 to 5000 nM | 100 to 1000 nM
Cn1cc(-c2cccc(-c3cc(C(F)(F)F)c(-c4cnn(C5CCOCC5)c4)cn3)c2)cn1 [Example 23, 2-[3-(1-Methyl-1H-pyrazol-4-yl)-phenyl]-5-[1-(tetrahydro-pyran-4-yl)-1H-pyrazol-4-yl]-4-trifluoromethyl-pyridine] | > 5000 nM | 1000 to 5000 nM

Other lines, results leading:

IC50 [1] | IC50 (IRAK4) | SMILES
> 5000 nM | 100 to 1000 nM | Cn1cc(-c2cccc(-c3ncc(-c4cnn(C)c4)c(NC4CCC5CNCC54)n3)c2)cn1 (stereo not shown) [Example 150]
100 to 1000 nM | < 100 nM | Cn1cc(-c2cccc(-c3ncc(-c4ccn(C)n4)c(N[C@H]4CC[C@@H](N)CC4)n3)c2)cn1 [Example 111]
1000 to 5000 nM | 100 to 1000 nM | CC(=O)N1CCC(CNc2nc(-c3cccc(-c4cnn(C)c4)c3)ncc2-c2cnn(C)c2)C(F)C1 (stereo not shown) [Example 235]
> 5000 nM | 100 to 1000 nM | CN1CCOC(CNc2nc(-c3cccc(-c4cnn(C)c4)c3)ncc2-c2cnn(C)c2)C1 (stereo not shown) [Example 105]
1000 to 5000 nM | 100 to 1000 nM | Cn1cc(-c2cccc(-c3ncc(-c4ccn(C)n4)c(NC4CCC(=O)NC4)n3)c2)cn1 (stereo not shown) [Example 102]
1000 to 5000 nM | 1000 to 5000 nM | Cn1cc(-c2cccc(-c3ncc(-c4ccn(C)n4)c(NC4CCCC4)n3)c2)cn1 [Example 33]
1000 to 5000 nM | 1000 to 5000 nM | Cn1cc(-c2cccc(-c3ncc(-c4cnn(C)c4)c(NCCN4CCNC4=O)n3)c2)cn1 [Example 58]
